Results taken from patent US11680073B2, “Anticancer indenes, indanes, azaindenes, azaindanes, pharmaceutical compositions and uses” (ADT PHARMACEUTICALS, LLC, priority 2018, dated 2023).
pIC50: −log10 of the molar value.

Legend:
[1] = test system: cells expressing mutant Ras; settings: cited from earlier work
[2] = test system: HCT-116, a highly Ras-driven line expressing mutant Ras; test: Tumor cell growth inhibition, CellTiter-Glo ATP luminescence assay, HCT-116; format: cell-based, human; settings: for pIC50: HCT-116, 72 h, human colon tumor cells, mutant Ras, 3-day treatment, ten-fold serial dilutions, read-out: micromolar IC50 for HCT-116; for HT-29/HCT-116 Ras Inhibitory Selectivity Index: ratio IC50 HT-29 / IC50 HCT-116, numbers greater than one indicate Ras selectivity
Procedure: (§1) Human cancer cell lines are obtained from the American Type Culture Collection (ATCC). Cells are cultured using standard methods in RPMI-1640 growth medium supplemented with 5% fetal bovine serum (FBS). CellTiter-Glo ATP cell growth assay reagents are obtained from Promega and used according to the manufacturer's protocol. Cells are plated at a density of 5,000 cells per well in 96-well microplates or 1,250 cells per well in 384-well plates, then allowed to attach for at least 4 h. Test compounds are dissolved in dimethyl sulfoxide (DMSO), and this working stock is further diluted in growth medium for addition to cell cultures. Serial dilutions of the test compound are prepared in growth medium containing an equal amount of DMSO not exceeding 0.2% final concentration. Each compound concentration is tested in at least 3 separate samples per cell line. At the end of a 3-day treatment period, growth inhibition is analyzed using a bioluminescent assay of ATP concentration (Promega CellTiter-Glo) according to the manufacturer's protocol. Resulting luminescence is measured using the luminescence cartridge of the Molecular Devices Spectramax Paradigm microplate reader. Relative growth inhibition for each sample is determined by comparison with the values obtained for vehicle treated control samples. Growth inhibition values are plotted with the GraphPad Prism5 software using the 4-parameter logistic fit to obtain IC50 values, which corresponds to the growth inhibitory potency of the compound.
(§2) This selected example illustrates the use of well-established human colon tumor cell lines with widely divergent Ras activation status to determine tumor cell growth inhibitory activity (IC50 values) and Ras selectivity values for some selected exemplary compounds of the present invention. Cell lines thus employed in this example are HCT-116, a highly Ras-driven line expressing mutant Ras, and HT-29, a non-Ras-driven line expressing wild-type, non-mutated Ras. Cells are plated at 5000 cells/well in 96-well plates, ten-fold serial dilutions of compounds are tested, each tested concentration in at least 3 separate samples per cell line, and viable cell numbers are measured using the Cell Titer Glo ATP luminescence assay (Promega). […] FIGS. 5-7 provide examples of full data sets from which numerical values, including Ras selectivity indices, can be calculated; data sets are shown for selected exemplary compounds 2090, 2096 and 2183. […]

[3] = test system: HT-29, a non-Ras-driven line expressing wild-type, non-mutated Ras; test: Tumor cell growth inhibition, CellTiter-Glo ATP luminescence assay, HT-29; format: cell-based; settings: HT-29, 72 h, human colon tumor cells, 3-day treatment, ten-fold serial dilutions, read-out: micromolar IC50 for HT-29
Procedure: as §1, §2

SMILES	pIC50 ([1]; cells expressing mutant Ras, read-out: IC50, growth inhibition of cells expressing mutant Ras)	selectivity versus cells lacking oncogenic Ras ([1]; versus cells lacking oncogenic Ras)	pIC50 [2]	HT-29/HCT-116 Ras Inhibitory Selectivity Index [2]	pIC50 [3]
Cc1onc(C(=O)N2CCN(C(c3ccc(Cl)cc3)c3ccc(Cl)cc3)CC2)c1[N+](=O)[O-] [ML210]	7.15	4 fold	–	–	–
COc1cc(/C=C2/C(C)=C(CC(=O)NCc3cccnc3)c3cc(F)ccc32)cc(OC)c1B(O)O [compound 1736, (Z)-(4-((5-fluoro-2-methyl-3-(2-oxo-2-((pyridin-3-ylmethyl)amino)ethyl)-1H-inden-1-ylidene)methyl)-2,6-dimethoxyphenyl)boronic acid]	–	–	5.30	1.11	5.25
COc1cc(CC2c3ccc(F)cc3C(CC(=O)NCc3ccccc3)C2C)cc(OC)c1O (centres unmarked) [compound 1796, N-benzyl-2-(6-fluoro-3-(4-hydroxy-3,5-dimethoxybenzyl)-2-methyl-2,3-dihydro-1H-inden-1-yl)acetamide]	–	–	6.67	38	5.10
COc1cc(/C=C2/C(C)=C(CNC(=O)c3ccco3)c3cc(F)ccc32)cc(OC)c1O [compound 2090, (Z)—N-((5-fluoro-1-(4-hydroxy-3,5-dimethoxybenzylidene)-2-methyl-1H-inden-3-yl)methyl)furan-2-carboxamide]	–	–	6.52	43	4.89
COc1cc(/C=C2/C(C)=C(CNC(=O)Cc3cccnc3)c3cc(F)ccc32)cc(OC)c1O [compound 2096, (Z)—N-((5-fluoro-1-(4-hydroxy-3,5-dimethoxybenzylidene)-2-methyl-1H-inden-3-yl)methyl)-2-(pyridin-3-yl)acetamide]	–	–	7.48	273	5.05
COc1cc(/C=C2/C(C)=C(CNC(=O)c3cn[nH]c3)c3cc(F)ccc32)cc(OC)c1O [compound 2183, (Z)—N-((5-fluoro-1-(4-hydroxy-3,5-dimethoxybenzylidene)-2-methyl-1H-inden-3-yl)methyl)-1H-pyrazole-4-carboxamide]	–	–	6.38	22	5.03
COc1cc(/C=C2/C(C)=C(CC(=O)NCc3cccnc3)c3cc(F)ccc32)cc(OC)c1B1OC(C)(C)C(C)(C)O1 [compound 2200, (Z)-2-(1-(3,5-dimethoxy-4-(4,4,5,5-tetramethyl-1,3,2-dioxaborolan-2-yl)benzylidene)-5-fluoro-2-methyl-1H-inden-3-yl)-N-(pyridin-3-ylmethyl)acetamide]	–	–	5.21	1.08	5.18
